Results published in ChEMBL document CHEMBL1201862, “PubChem BioAssay data set” (2004).
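In this assay, cells in 96-well plates receive the compound at five concentrations for 48 hours. Endpoints are linearly interpolated between the surrounding concentrations. Abbreviation: GI50, concentration required for 50% inhibition of growth.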 Calls of active or inactive are those of the source. Cut-off read from the data, not from the text of the source: active = GI50 up to about 1.1 µM and inactive = higher.

Tests used:
Test in all cases: inhibition of tumour cell growth, NCI panel, 48 h
[1] = tested on: HL-60
[2] = tested on: OVCAR-5
[3] = tested on: A549
[4] = tested on: UACC-62
[5] = tested on: CAKI-1
[6] = tested on: HCT-116
[7] = tested on: SK-OV-3
[8] = tested on: RPMI-8226
[9] = tested on: SW-620
[10] = tested on: NCI-H522
[11] = tested on: SF-268
[12] = tested on: MCF7
[13] = tested on: CCRF-CEM
[14] = tested on: NCI/ADR-RES
[15] = tested on: UACC-257
[16] = tested on: OVCAR-8
[17] = tested on: NCI-H226
[18] = tested on: M14
[19] = tested on: ACHN

SMILES | GI50 [1] | GI50 [2] | GI50 [3] | GI50 [4] | GI50 [5] | GI50 [6] | GI50 [7] | GI50 [8] | GI50 [9] | GI50 [10] | GI50 [11] | GI50 [12] | GI50 [13] | GI50 [14] | GI50 [15] | GI50 [16] | GI50 [17] | GI50 [18] | GI50 [19]
O=C1C=C2SC3C[C@@]24CC1(O)[N+]1=c2c4c(c(O)c4c2=C(C=N4)CC1)N3 | 0.217 µM (active) | 2.33 µM (inactive) | 2 µM (inactive) | 0.533 µM (active) | 2.24 µM (inactive) | 0.217 µM (active) | 1.95 µM (inactive) | 0.457 µM (active) | 0.33 µM (active) | 0.296 µM (active) | 1.01 µM (active) | 0.278 µM (active) | 0.321 µM (active) | 0.887 µM (active) | 1.16 µM (inactive) | 0.33 µM (active) | 1.78 µM (inactive) |  | 
O/N=C1/CCCC/C1=C/C=C/c1ccccc1 | 13.1 µM (inactive) | 26.7 µM (inactive) | 22.8 µM (inactive) | 18.6 µM (inactive) | 35.7 µM (inactive) | 15.7 µM (inactive) | 39 µM (inactive) | 18.6 µM (inactive) | 26.5 µM (inactive) | 19.1 µM (inactive) | 19.1 µM (inactive) |  | 20.6 µM (inactive) |  | 24.9 µM (inactive) | 41.9 µM (inactive) | 23.6 µM (inactive) | 21.2 µM (inactive) | 25.6 µM (inactive)
O=C1C(c2ccccc2)=C(O)c2cccc3cccc1c23 | > 100 µM (inactive) | > 100 µM (inactive) | > 100 µM (inactive) | > 100 µM (inactive) | > 100 µM (inactive) | > 100 µM (inactive) | > 100 µM (inactive) | > 100 µM (inactive) | > 100 µM (inactive) | > 100 µM (inactive) | > 100 µM (inactive) |  | > 100 µM (inactive) |  | > 100 µM (inactive) | > 100 µM (inactive) | 88.9 µM (inactive) | > 100 µM (inactive) | > 100 µM (inactive)
OC(CC1SCCCS1)c1ccccc1 (stereo unspecified) | > 100 µM (inactive) | > 100 µM (inactive) | > 100 µM (inactive) | > 100 µM (inactive) | > 100 µM (inactive) | > 100 µM (inactive) | > 100 µM (inactive) | > 100 µM (inactive) | > 100 µM (inactive) | 61.7 µM (inactive) | > 100 µM (inactive) |  | > 100 µM (inactive) |  | > 100 µM (inactive) | > 100 µM (inactive) | > 100 µM (inactive) | > 100 µM (inactive) | > 100 µM (inactive)
CCCCCNC(=O)CCCCCCCCCCCNC(=O)CCCCCCCCCCN1C=CC(=CC=C2C=CC(=O)C=C2)C=C1 | 2.51 µM (inactive) | > 100 µM (inactive) | > 100 µM (inactive) | 48.4 µM (inactive) | > 100 µM (inactive) | > 100 µM (inactive) | > 100 µM (inactive) | 8.99 µM (inactive) | 54.1 µM (inactive) | 32.4 µM (inactive) | > 100 µM (inactive) |  | 15.1 µM (inactive) |  | 16.6 µM (inactive) | 55.7 µM (inactive) | 63.8 µM (inactive) | > 100 µM (inactive) | > 100 µM (inactive)
CN(C)C(=S)/N=c1\ss/c(=N\C(=S)N(C)C)n1C1CCCCC1 | 69 µM (inactive) | > 100 µM (inactive) | > 100 µM (inactive) | 1.06 µM (active) | > 100 µM (inactive) | > 100 µM (inactive) | > 100 µM (inactive) | 25.5 µM (inactive) | > 100 µM (inactive) | 25.5 µM (inactive) | 44.9 µM (inactive) |  | 32.7 µM (inactive) |  | > 100 µM (inactive) | 84.3 µM (inactive) | > 100 µM (inactive) | > 100 µM (inactive) | > 100 µM (inactive)
CC1=CC2=C(C=O)C(=O)[C@](C)(O)[C@@H](O)C2=CO1 |  | > 50.8 µM (inactive) | 28 µM (inactive) | 23.5 µM (inactive) | 33.5 µM (inactive) | 22.3 µM (inactive) | 19.5 µM (inactive) | 15.9 µM (inactive) | 29.4 µM (inactive) | 17.2 µM (inactive) | 24.9 µM (inactive) | 39.4 µM (inactive) | 21.5 µM (inactive) | > 53.8 µM (inactive) | 33.2 µM (inactive) | > 64.7 µM (inactive) | 25.8 µM (inactive) |  | 
O=C(NC1C(=O)NNC1c1ccccc1Cl)c1ccccc1 (stereo unspecified) | > 100 µM (inactive) | > 100 µM (inactive) | > 100 µM (inactive) | > 100 µM (inactive) | > 100 µM (inactive) | > 100 µM (inactive) | > 100 µM (inactive) | 82.2 µM (inactive) | > 100 µM (inactive) | 91.4 µM (inactive) | > 100 µM (inactive) |  | > 100 µM (inactive) |  | > 100 µM (inactive) | > 100 µM (inactive) | 83 µM (inactive) | > 100 µM (inactive) | > 100 µM (inactive)
CC1CCCc2c(CC3CC(=O)NC(=O)C3)n[nH]c21 (stereo unspecified) | > 100 µM (inactive) | > 100 µM (inactive) | > 100 µM (inactive) | > 100 µM (inactive) | > 100 µM (inactive) | > 100 µM (inactive) | > 100 µM (inactive) | > 100 µM (inactive) | > 100 µM (inactive) | > 100 µM (inactive) | > 100 µM (inactive) |  | > 100 µM (inactive) |  | > 100 µM (inactive) | > 100 µM (inactive) | > 100 µM (inactive) | > 100 µM (inactive) | > 100 µM (inactive)
Cc1ccccc1NC(=O)c1ccc([N+](=O)[O-])cc1 | 46.8 µM (inactive) | > 100 µM (inactive) | > 100 µM (inactive) | > 100 µM (inactive) | > 100 µM (inactive) | > 100 µM (inactive) | > 100 µM (inactive) | > 100 µM (inactive) | > 100 µM (inactive) | 28 µM (inactive) | > 100 µM (inactive) |  | > 100 µM (inactive) |  | > 100 µM (inactive) | > 100 µM (inactive) | > 100 µM (inactive) | > 100 µM (inactive) | > 100 µM (inactive)
N#C/C(=C\c1ccc(O)c(O)c1)C(N)=O | 10.1 µM (inactive) | > 100 µM (inactive) | 46.2 µM (inactive) | 52.7 µM (inactive) | 95.9 µM (inactive) | 23 µM (inactive) | 71.4 µM (inactive) | 15.5 µM (inactive) | 43.9 µM (inactive) | 9.2 µM (inactive) | 35 µM (inactive) |  | 5.78 µM (inactive) |  | 36 µM (inactive) | 43.4 µM (inactive) | 37 µM (inactive) | 55.6 µM (inactive) | 41.6 µM (inactive)
N#Cc1c(N2CCCC2)nsc1Nc1ccccc1 | > 100 µM (inactive) | > 100 µM (inactive) | > 100 µM (inactive) |  | > 10 µM (inactive) | > 100 µM (inactive) |  | > 100 µM (inactive) | > 100 µM (inactive) |  | > 100 µM (inactive) |  | > 100 µM (inactive) | > 100 µM (inactive) | > 100 µM (inactive) | > 100 µM (inactive) | > 100 µM (inactive) | > 100 µM (inactive) | > 100 µM (inactive)
O=[N+]([O-])c1ccc(O)c(/C=N/CC2CCCN3CCCCC23)c1 (stereo unspecified) |  | 31.7 µM (inactive) | 91.4 µM (inactive) | 27.9 µM (inactive) | 57.7 µM (inactive) | 44.2 µM (inactive) | 29.6 µM (inactive) |  |  | 26 µM (inactive) | 21.3 µM (inactive) | 46.8 µM (inactive) |  | 20.7 µM (inactive) | 32.5 µM (inactive) | 30.8 µM (inactive) | 26.5 µM (inactive) | 19.6 µM (inactive) | 26.9 µM (inactive)
COc1cc(-c2ccccc2)c(OC)cc1CCl | > 100 µM (inactive) | > 100 µM (inactive) | > 100 µM (inactive) | > 100 µM (inactive) | > 100 µM (inactive) | > 100 µM (inactive) | > 100 µM (inactive) | > 100 µM (inactive) | > 100 µM (inactive) | > 100 µM (inactive) | > 100 µM (inactive) |  | > 100 µM (inactive) |  | > 100 µM (inactive) | > 100 µM (inactive) | > 100 µM (inactive) | > 100 µM (inactive) | > 100 µM (inactive)
O=[N+]([O-])c1ccc(/C(Cl)=C/c2ccc(/C=C(\Cl)c3ccc([N+](=O)[O-])cc3[N+](=O)[O-])cc2)c([N+](=O)[O-])c1 | 57.4 µM (inactive) | > 100 µM (inactive) | > 100 µM (inactive) | > 100 µM (inactive) | > 100 µM (inactive) | > 100 µM (inactive) | > 100 µM (inactive) | > 100 µM (inactive) | > 100 µM (inactive) | > 100 µM (inactive) | > 100 µM (inactive) |  |  |  | > 100 µM (inactive) | > 100 µM (inactive) | > 100 µM (inactive) | > 100 µM (inactive) | > 100 µM (inactive)
COC(=O)c1c(C)cc2c(c1O)C1(O)C(=O)c3cc4c(c(O)c3C(=O)C1(OC)C(O)C2)C(=O)C=C(NC1OC(C)C(OC)C(O)C1OC)C4=O (stereo unspecified) | 0.0194 µM (active) | 0.205 µM (active) | 0.0619 µM (active) | 0.0139 µM (active) | 0.225 µM (active) | 0.0378 µM (active) | 0.298 µM (active) | 0.0157 µM (active) | 0.0416 µM (active) | 0.0552 µM (active) | 0.142 µM (active) |  | 0.0189 µM (active) |  | 0.017 µM (active) | 0.0695 µM (active) | 0.189 µM (active) | 0.119 µM (active) | 0.0681 µM (active)
